Holding throughout (format): physicochemical
Series [1] can be described thus: Solubility properties of HPPA-Na2 under simulated hydroformylation reaction conditions with incremental water addition (Example 7). On the procedure:
A small portion (67 mg) of the disodium salt of hydroxypentylphosphonic acid (HPPA-Na2) was charged to a 3 oz glass pressure vessel. A 2:1 mixture of valeraldehyde and valeraldehyde trimers (4.07 g) was added, and stirring was initiated at room temperature. Butene-1 (1.22 g) was added via syringe, and the tube was placed in an oil bath at 70° C. Additional water was slowly added to determine solubility properties under simulated hydroformylation reaction conditions. Total water content is based on the initial water level (determined by K—F titration) plus the incremental water additions made throughout.

The nature of series [2]: Observation of HPPA-Na2 in valeraldehyde/valeraldehyde trimers (2:1) and 1-butene, stirred at room temperature for two hours (Examples 1-3). How it is done: (§1) Valeraldehyde was freshly distilled under reduced pressure prior to use. Valeraldehyde trimers were obtained by vacuum distillation of a commercial catalyst recycle sample. The distillate was determined to be a mixture of 75% valeraldehyde trimers and 25% valeraldehyde dimers by gas chromatography and mass spectrometry (GC/MS). A portion of both valeraldehyde and valeraldehyde trimers was saturated with water, and then blended with freshly distilled material to provide solutions of varying water levels. Unless otherwise noted, all water concentrations were determined by Karl-Fischer titration.
One small portion (70 mg) of a disodium salt of hydroxypentylphosphonic acid (HPPA-Na2) was charged to each of three, 3 oz glass pressure vessels. Valeraldehyde, valeraldehyde trimers (2:1 weight ratio) and 1-butene were then added via syringe and stirred at room temperature for two hours.

Series [3] can be described thus: Observation of HPPA-Na2 in anhydrous valeraldehyde at room temperature (Comparative Example 1). The note with it: 15 mg in anhydrous valeraldehyde (3.52 g; 0.0961 wt % water), two hours. On the procedure:
One small portion (15 mg) of a disodium salt of hydroxypentylphosphonic acid (HPPA-Na2) was charged to a 20 ml glass vial under nitrogen. Anhydrous valeraldehyde (3.52 g; 0.0961 wt % water) was added and the resulting mixture was stirred at room temperature.

Series [4] in a line: HPPA-Na2 solubility in valeraldehyde/valeraldehyde trimers/1-butene at 70° C., filtrate quantified by ion chromatography (Examples 4-6). As to conditions: two hours. How it is done:
as §1
One small portion (130-160 mg) of the disodium salt of hydroxypentylphosphonic acid (HPPA-Na2) was charged to each of three, 3 oz glass pressure vessels. Valeraldehyde, valeraldehyde trimers and 1-butene were then added via syringe and the resulting mixtures (which contained various levels of water) were stirred vigorously at 70° C. for two hours. Samples were then removed at temperature, quickly filtered, and the filtrate was twice extracted with water to facilitate the quantization of HPPA-Na2 solubility by ion chromatography.
The solutions of Examples 4-6 were intended to model actual hydroformylation solution conditions.

In the case of `CCCCC(O)P(=O)([O-])[O-].[Na+].[Na+]` (centres unmarked) [HPPA-Na2, disodium salt of hydroxypentylphosphonic acid], the Result entry in series [1] (22 ° C., water content 0.86 %, additive 1.22 g 1-butene) is given as “No change”; in series [1] (22 ° C., water content 0.86 %, additives None) it was “Opaque with sticky, gelatinous”; in series [1] (70 ° C., water content 0.86 %, additives None), “No change”; in series [1] (70 ° C., water content 3.19 %, additive 0.1 mL water), “No change”; in series [1] (70 ° C., water content 5.54 %, additive 0.1 mL water) it was “Less turbid”; in series [1] (70 ° C., water content 7.72 %, additive 0.1 mL water), “Much less turbid; solids gone”. In addition, the Result entry in series [1] (70 ° C., water content 9.8 %, additive 0.1 mL water) is “Clear solution”. The Observations entry in series [2] (Example 1, val/val trimer 8.42 g, 1-butene 2.41 g, Water 0.29 %) was “Voluminous, gelatinous”; in series [2] (Example 2, val/val trimer 8.94 g, 1-butene 2.26 g, Water 0.87 %), “Mixture of gel and sticky”; in series [2] (Example 3, val/val trimer 8.97 g, 1-butene 2.22 g, Water 1.47 %), “Sticky material on glass”. In series [3], the “Appearance of the solids after stirring” value is listed as “the solids remained free-flowing, suspended particulates”. In addition, the HPPA-Na2 solubility was determined as 4.8 ppm in series [4] (Ex. 4, Val. 52.0 wt %, Val Trimer 26.0 wt %, 1-butene 21.2 wt %, Water 0.103 wt %); 15.5 ppm in series [4] (Ex. 5, Val. 52.1 wt %, Val Trimer 26.0 wt %, 1-butene 21.1 wt %, Water 0.380 wt %); 21.3 ppm in series [4] (Ex. 6, Val. 52.7 wt %, Val Trimer 26.4 wt %, 1-butene 20.8 wt %, Water 0.860 wt %). In addition, the Description result was “Hazy watery” in series [4] (Ex. 4, Water 0.103 wt %); “Very hazy” in series [4] (Ex. 5, Water 0.380 wt %); “Solid gel” in series [4] (Ex. 6, Water 0.860 wt %).

The record behind these values is patent US8884072B2, “Mitigation of fouling in hydroformylation processes by water addition” (Dow Technology Investments LLC, priority 2010, dated 2014).
